Assay results as given in a melting point compilation (Tetko et al.).

melting point [°C]	SMILES
103 to 105	CCC(C)(C)c1ccc(C(=O)O)cc1
67 to 69	O=C(O)C1(c2ccc(F)cc2)CCC1
181 to 185	CC(C)(C)NS(=O)(=O)c1ccc(C(=O)O)cc1
77 to 79	CC(O)c1cnc(-c2ccc(Br)cc2)s1 (stereo not given)
269 to 271	COc1ccc(-c2n[nH]c(=O)c3ccccc23)cc1F
166 to 168	CCOc1ccccc1C(=O)NCC(=O)O
328 to 330	Cc1cc(C)c2c(-c3ccccc3)nc(S)n2n1
47 to 49	OC(c1ccc[nH]1)C(F)(F)F (stereo not given)
128 to 130	Nc1ccccc1NC(=O)CC1C=CCC1 (stereo not given)
139 to 141	Cn1cccc1C(=O)NC(=O)CCl
175 to 177	CCOC(=O)c1cnn(-c2ccc(C(=O)O)cc2)c1C(F)(F)F
55 to 57	O=c1[nH]ccs1
165 to 167	Nc1cc([N+](=O)[O-])ccc1Nc1cccc(C(F)(F)F)c1
205 to 207	Cn1cc(C(=O)O)c(C(F)(F)F)c1
97 to 99	CCOC(=O)c1sc(-c2cccc(Br)c2)cc1N
63 to 65	COC(=O)c1ccc(F)cc1S(=O)(=O)Cl

melting point [°C]	SMILES
61 to 63	CC(CC(=O)O)c1ccccc1Br (stereo not given)
138 to 140	Nc1ccc(Oc2ccccc2)cc1C(=O)O
107 to 109	O=C(O)C1Cc2ccccc2S1 (stereo not given)
139 to 141	OC1CCNCc2ccccc21 (stereo not given)
209 to 211	COc1ccc(-c2cc(C(=O)O)[nH]n2)cc1
157 to 159	O=C(O)c1ccccc1NS(=O)(=O)c1cccc(C(F)(F)F)c1
68 to 70	CN(C)CC(O)Cn1cc(N)cn1 (stereo not given)
132 to 134	N#CCC(=O)N1CCN(c2ccccc2)CC1
33 to 35	CC(CC(=O)O)c1cccc(F)c1 (stereo not given)
228 to 230	CC(C)(C)c1csc(-c2ccc(O)cc2)n1
189 to 191	Cc1cc(F)ccc1-c1ccc(C(=O)O)cc1F
142 to 144	O=C(O)c1cccc2c1CCCN2
107 to 109	O=C(O)c1ncccc1C(F)(F)F
144 to 146	NC(=O)c1coc2ccccc12
106 to 108	O=C(CCl)Nc1ccc(F)c(F)c1
57 to 59	CC(C)(C)OC(=O)N1CCN(CC(O)c2ccco2)CC1 (stereo not given)

The next lines start with the compound.

SMILES	melting point [°C]
Nc1cc2c(cc1N)OCCO2	124 to 126
Cc1noc(C)c1S(=O)(=O)NC(C)C(=O)O (stereo not given)	135 to 137
NC(=O)Nc1ccc(S(=O)(=O)F)cc1	177 to 179
CC(C)(C)c1cc(CCC(=O)O)cc(C(C)(C)C)c1O	165 to 167
Cc1ccc(N)c(OCC(=O)N(C)C)c1	83 to 85
COc1cc(/C=C/C(=O)O)cc(Cl)c1OC(C)C	113 to 115
O=C(O)CN1CCS(=O)(=O)CC1	179 to 181
Cc1cc(C)cc(-n2c(C)cc(C(=O)O)c2C)c1	169 to 171
O=C(O)c1ccc(NC(=O)c2ccc(Br)cc2)cc1	327 to 329
COC(=O)C(=O)CC(=O)c1cc(Cl)ccc1Cl	150 to 152
NC(CC(=O)O)C1CC1 (stereo not given)	209 to 211
NC(=O)c1csc(C=O)c1	155 to 157
Cc1cc2c(N3CCCC3C(=O)O)ncnc2s1 (stereo not given)	129 to 131
O=C(O)c1cc(NCc2ccccc2)nc2ccccc12	339 to 341
Cc1cc(N)nn1-c1ccc(Cl)c(Cl)c1	124 to 126
O=C(O)c1cc([N+](=O)[O-])cc2c1OCCO2	248 to 250
Cc1c(C(=O)O)cnn1C(C)(C)C	132 to 134
CN(C)S(=O)(=O)c1cc(NC(=O)CCl)ccc1Cl	183 to 185
NC1(C(=O)O)CCCSC1 (stereo not given)	208 to 210
CCN1C(=O)C(=O)c2cc(Br)ccc21	144 to 146
O=C(Nc1ccccc1)c1cccc(-n2ccnc2S)c1	228 to 230
N#Cc1cc(Br)ccc1S(=O)(=O)Cl	94 to 96
CCCCNc1c(N)n(CCC)c(=O)[nH]c1=O	201 to 203
